Assay results from US20090004261A1, “PHARMACEUTICAL COMPOSITION FOR ORAL ADMINISTRATION OF A PYRAZOLE-3-CARBOXAMIDE DERIVATIVE” (Sanofi-aventis, priority 2003, published 2009).
Converted amounts (≈) assume the structure as drawn.

Assays:
[1] = Membrane permeability coefficient on the CaCO2 cell model; type: in vitro ADME; conditions: human, Caco-2
Procedure: (§1) These compounds are molecules that are very sparingly soluble in water, respectively: 0.1 μg/ml and 1 μg/l at pH=6.5. Furthermore, these compounds have high membrane permeability coefficients: respectively, 78×10^−7 cm/s and 96×10^−7 cm/s on the CaCO2 cell model, as described by M. C. Gres et al. in Pharmaceutical Research, […], 15(5), 726-7333.

Solubility in water = type: physicochemical; conditions: pH=6.5
Procedure: as §1

Compound | Papp [1] | solubility (Solubility in water)
Cc1c(C(=O)NN2CCCCC2)nn(-c2ccc(Cl)cc2Cl)c1-c1ccc(Cl)cc1 [Compound B, N-Piperidino-5-(4-chlorophenyl)-1-(2,4-dichlorophenyl)-4-methylpyrazole-3-carboxamide, reference compound] | 9.6 ×10⁻⁶ cm/s | 
CCc1c(C(=O)NN2CCCCC2)nn(-c2ccc(Cl)cc2Cl)c1-c1ccc(Br)cc1 [Compound A, N-Piperidino-5-(4-bromophenyl)-1-(2,4-dichlorophenyl)-4-ethylpyrazole-3-carboxamide] | 7.8 ×10⁻⁶ cm/s | 0.1 µg/mL (≈ 0.191 µM)
